For assay [1], the system named is Thymocyte. The assay can be described thus: Immunosuppressive activity in thymocytes by thymocyte proliferation assay. The format is functional, cell-based.
Assay [2] relates to Lymphocyte. Kind of assay: Immunosuppressive activity in lymphocytes by mixed lymphocyte reaction assay. The format is functional, cell-based.
Assay [3] has as its system Bacillus anthracis. The assay can be described thus: Antimicrobial activity against Bacillus anthracis. The format is functional.
Assay [4] concerns Plasmodium falciparum. Kind of assay: Antiplasmodial activity against Plasmodium falciparum. The assay is classed as functional. The settings on record: read-out: LD50 (the source's name).

Values after ≈ are worked out from the molar mass of the structure shown.

For `C=C1CC[C@H]2[C@]3(C)C[C@H](C=C(C)C)O[C@H]3CC[C@]2(C)[C@@H]1Cc1c(O)c(C)c(C)oc1=O` [SUBGLUTINOL B], the IC50 in assay [1] and in assay [2] was 100 nM throughout.

In assay [3], `CS[C@H]1SC[C@H]2C(=O)N(C)[C@@H](C(C)C)C(=O)OC[C@@H](NC(=O)c3cnc4ccccc4n3)C(=O)N[C@@H](C)C(=O)N(C)[C@@H]1C(=O)N(C)[C@@H](C(C)C)C(=O)OC[C@@H](NC(=O)c1cnc3ccccc3n1)C(=O)N[C@@H](C)C(=O)N2C` [ECHINOMYCIN] registered an MIC of 1 µg/mL (≈ 0.908 µM). Also, the LC50 in assay [4] was found to be 0.007 µg/mL (≈ 0.00636 µM).

Regarding `C=C1CC[C@H]2[C@]3(C)C[C@@H](C=C(C)C)O[C@H]3CC[C@]2(C)[C@@H]1Cc1c(O)c(C)c(C)oc1=O` [SUBGLUTINOL A], the IC50 in assay [1] and in assay [2] was 100 nM in each case.

Values taken from ChEMBL document CHEMBL1146482, “Natural products from endophytic microorganisms” (J Nat Prod, 2004).
